Results published in patent US20140357662A1, “THIENO (2,3 - C) PYRAZOLES FOR USE AS POTASSIUM CHANNEL INHIBITORS” (XENTION LIMITED, priority 2011, published 2014).

Target: T1, rat Kir3.1/3.4 (Rattus norvegicus, UniProt P48548+P63251)
T1 construct: expressed in transfected cells; host or cells: HEK293 (Human Embryonic Kidney 293), stably transfected
T1 sequence (P63251 1-501): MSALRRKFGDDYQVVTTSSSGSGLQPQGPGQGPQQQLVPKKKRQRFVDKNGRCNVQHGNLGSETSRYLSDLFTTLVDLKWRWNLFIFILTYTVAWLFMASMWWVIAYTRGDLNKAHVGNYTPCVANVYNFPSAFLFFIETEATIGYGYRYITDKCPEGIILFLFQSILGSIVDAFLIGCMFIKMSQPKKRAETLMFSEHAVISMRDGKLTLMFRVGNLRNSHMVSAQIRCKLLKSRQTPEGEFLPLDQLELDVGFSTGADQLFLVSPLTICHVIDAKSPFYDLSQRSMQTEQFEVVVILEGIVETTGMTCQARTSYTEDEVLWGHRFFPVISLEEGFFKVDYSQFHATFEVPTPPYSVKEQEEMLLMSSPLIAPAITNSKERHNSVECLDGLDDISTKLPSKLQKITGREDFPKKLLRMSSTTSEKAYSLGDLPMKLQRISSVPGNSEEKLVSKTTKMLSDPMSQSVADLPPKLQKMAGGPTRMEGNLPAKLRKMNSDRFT
T1 sequence (P48548 1-419): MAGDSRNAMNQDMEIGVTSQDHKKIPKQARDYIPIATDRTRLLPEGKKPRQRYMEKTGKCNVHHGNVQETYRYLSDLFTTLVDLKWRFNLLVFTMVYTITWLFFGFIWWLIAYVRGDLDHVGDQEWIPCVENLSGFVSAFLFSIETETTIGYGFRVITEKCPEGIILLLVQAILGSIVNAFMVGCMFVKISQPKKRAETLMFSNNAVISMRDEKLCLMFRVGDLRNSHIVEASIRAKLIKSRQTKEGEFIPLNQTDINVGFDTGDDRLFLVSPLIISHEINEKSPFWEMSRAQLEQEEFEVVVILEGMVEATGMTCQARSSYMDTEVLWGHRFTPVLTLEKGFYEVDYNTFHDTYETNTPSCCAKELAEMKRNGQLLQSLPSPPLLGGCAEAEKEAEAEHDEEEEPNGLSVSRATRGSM
Test: Kir3.1/3.4 Electrophysiology Method (manual whole-cell patch clamp)
Format: cell-based
Conditions: Human Embryonic Kidney 293 stably transfected with rat Kir3.1/3.4; inhibition of leak-subtracted current at -140 mV
Procedure: Compound activity against the recombinant G-protein activated inward rectifier current encoded by the heterotetramer Kir3.1/3.4 was assessed using manual whole-cell patch technique. The heterotetramer forms the pore-forming channel that conducts the acetylcholine/adenosine-activated potassium current in the heart.
For whole-cell patch-clamp studies, cells (Human Embryonic Kidney 293 stably transfected with rat Kir3.1/3.4) were seeded onto glass coverslips before recordings were made. Cells were seeded in sterile 30 mm Petri dishes at a density to enable isolated cells to be selected for patch clamp experiments. The dishes were stored in a humidified, gassed (5% CO2) incubator at 37° C. until use.
Whole-cell patch-clamp recordings of membrane currents were made following gigaohm seal formation between the patch electrode and the cell using HEKA EPC-9/10 amplifiers controlled by Pulse Software (Ver8.5x/8.6x/8.7x, HEKA, Germany). Coverslips seeded with cells were placed in a recording chamber mounted on the stage of an inverted microscope. During the experiment, the cell of interest was continuously superfused with bather solution delivered via a cannula placed in close proximity to the cell to enable control of the extracellular solution environment. Only those cells with a current <−500 pA (current at −140 mV) were used for experiments. During experiments, series resistance was compensated by a minimum of 70%.
Electrophysiology voltage-step protocols and analysis of data were performed as follows. Data was sampled at 5 kHz, and filtered with a −3 dB bandwidth of 2.5 kHz. Cells were held at a voltage of −60 mV. Currents were evoked by a depolarising voltage step to +60 mV (100 ms) before a ramp-repolarisation (0.4 V·s^−1) to −140 mV (100 ms) before returning to −60 mV. The command waveform was repeatedly applied every 10 s throughout the experiment. Mean currents during 1-99% of the time at −140 mV were analysed using Pulsefit software (v8.x, HEKA, Germany). The voltage protocol was repeatedly applied to achieve a stable current baseline in bather before the test substance was superfused via the cannula in close proximity to the cell under investigation. The test substance was allowed to equilibrate during which time voltage protocol was repeatedly applied and recorded. On reaching steady-state inhibition, the cell was superfused with an identical bather solution containing zero external potassium chloride (replaced by equimolar NaCl). The identical current measurement was made in the absence of potassium to assess the passive leak at −140 mV. The leak current was subtracted from the control and steady-state drug current values. The percentage inhibition of the leak-subtracted current in the presence of test substance was calculated relative to the control leak-subtracted pre-drug value. Internal patch-pipette solution contained in mM: 110 KCl, 20 NaCl, 0.9 GTPγS, 5 Mg-ATP, 5 EGTA, 10 HEPES, pH7.2 corrected with KOH. The external superfusate composition in mM was: 150 (or 160) NaCl, 10 (or 0) KCl, 3 CaCl2, 1 MgCl, 10 HEPES, pH 7.4 corrected with NaOH.

| IC50 | SMILES |
| --- | --- |
| < 500 nM | c1ccc(-c2csc3[nH]nc(N4CCC(COCCN5CCCC5)CC4)c23)cc1 [Compound 1, 4-phenyl-3-[4-(2-pyrrolidin-1-ylethoxymethyl)-1-piperidyl]-1H-thieno[2,3-c]pyrazole] |
| < 500 nM | Brc1sc2[nH]nc(N3CC4CC3CC4OCCN3CCCC3)c2c1-c1ccccc1 (stereo not drawn) [Compound 2, 5-bromo-4-phenyl-3-[5-(2-pyrrolidin-1-ylethoxy)-2-azabicyclo[2.2.1]heptan-2-yl]-1H-thieno[2,3-c]pyrazole] |
| < 500 nM | N#Cc1sc2[nH]nc(N3CCC(COCCN4CCCC4)CC3)c2c1-c1ccccc1 [Compound 3, 4-phenyl-3-[4-(2-pyrrolidin-1-ylethoxymethyl)-1-piperidyl]-1H-thieno[2,3-c]pyrazole-5-carbonitrile] |
| < 500 nM | c1ccc(-c2csc3[nH]nc(N4CCC(COCCN5CCCC5)C4)c23)cc1 (stereo not drawn) [Compound 9, 4-phenyl-3-[3-(2-pyrrolidin-1-ylethoxymethyl)pyrrolidin-1-yl]-1H-thieno[2,3-c]pyrazole] |
| < 500 nM | CC(=O)n1nc(N2CCC(COCCN3CCCC3)CC2)c2c(-c3ccccc3)csc21 [Compound 13, 1-[4-phenyl-3-[4-(2-pyrrolidin-1-ylethoxymethyl)-1-piperidyl]thieno[2,3-c]pyrazol-1-yl]ethanone] |
| < 500 nM | CC(=O)n1nc(N2CC3CC2CC3OCCN2CCCC2)c2c(-c3ccccc3)csc21 (stereo not drawn) [Compound 14, 1-[4-phenyl-3-[5-(2-pyrrolidin-1-ylethoxy)-2-azabicyclo[2.2.1]heptan-2-yl]thieno[2,3-c]pyrazol-1-yl]ethanone] |
| < 500 nM | CC(=O)n1nc(N2CC3CC2CC3OCCN2CCCC2)c2c(-c3ccc(F)cc3)csc21 (stereo not drawn) [Compound 15, 1-[4-(4-fluorophenyl)-3-[5-(2-pyrrolidin-1-ylethoxy)-2-azabicyclo[2.2.1]heptan-2-yl]thieno[2,3-c]pyrazol-1-yl]ethanone] |
| < 500 nM | CS(=O)(=O)n1nc(N2CC3CC2CC3OCCN2CCCC2)c2c(-c3ccc(F)cc3)csc21 (stereo not drawn) [Compound 16, 4-(4-fluorophenyl)-1-methylsulfonyl-3-[5-(2-pyrrolidin-1-ylethoxy)-2-azabicyclo[2.2.1]heptan-2-yl]thieno[2,3-c]pyrazole] |
| < 500 nM | CC(=O)n1nc(N2CCCC(COCCN3CCCC3)C2)c2c(-c3ccccc3)csc21 (stereo not drawn) [Compound 18, 1-[4-phenyl-3-[3-(2-pyrrolidin-1-ylethoxymethyl)-1-piperidyl]thieno[2,3-c]pyrazol-1-yl]ethanone] |
| < 500 nM | CC(=O)n1nc(N2CCC(COCCN3CCCC3)C2)c2c(-c3ccccc3)csc21 (stereo not drawn) [Compound 19, 1-[4-phenyl-3-[3-(2-pyrrolidin-1-ylethoxymethyl)pyrrolidin-1-yl]thieno[2,3-c]pyrazol-1-yl]ethanone] |
| < 500 nM | CS(=O)(=O)n1nc(N2CCC(COCCN3CCCC3)CC2)c2c(-c3ccccc3)csc21 [Compound 20, 1-methylsulfonyl-4-phenyl-3-[4-(2-pyrrolidin-1-ylethoxymethyl)-1-piperidyl]thieno[2,3-c]pyrazole] |
| 500 to 3000 nM | CN(C)C(=O)c1sc2c(c(N3CCC(COCCN4CCCC4)CC3)nn2C)c1-c1ccccc1 [Compound 22, N,N,1-trimethyl-4-phenyl-3-[4-(2-pyrrolidin-1-ylethoxymethyl)-1-piperidyl]thieno[2,3-c]pyrazole-5-carboxamide] |

More lines, now with the values behind:

| SMILES | IC50 |
| --- | --- |
| c1ccc(-c2csc3[nH]nc(N4CC5CC4CC5OCCN4CCCC4)c23)cc1 (stereo not drawn) [Compound 4, 4-phenyl-3-[5-(2-pyrrolidin-1-ylethoxy)-2-azabicyclo[2.2.1]heptan-2-yl]-1H-thieno[2,3-c]pyrazole] | < 500 nM |
| Fc1ccc(-c2csc3[nH]nc(N4CC5CC4CC5OCCN4CCCC4)c23)cc1 (stereo not drawn) [Compound 5, 4-(4-fluorophenyl)-3-[5-(2-pyrrolidin-1-ylethoxy)-2-azabicyclo[2.2.1]heptan-2-yl]-1H-thieno[2,3-c]pyrazole] | < 500 nM |
| c1ccc(-c2csc3[nH]nc(N4C5CCC4CC(COCCN4CCCC4)C5)c23)cc1 (stereo not drawn) [Compound 6, 4-phenyl-3-[3-(2-pyrrolidin-1-ylethoxymethyl)-8-azabicyclo[3.2.1]octan-8-yl]-1H-thieno[2,3-c]pyrazole] | < 500 nM |
| c1ccc(-c2csc3[nH]nc(N4C5CCC4CC(OCCN4CCCC4)C5)c23)cc1 (stereo not drawn) [Compound 7, 4-phenyl-3-[3-(2-pyrrolidin-1-ylethoxy)-8-azabicyclo[3.2.1]octan-8-yl]-1H-thieno[2,3-c]pyrazole] | < 500 nM |
| c1ccc(-c2csc3[nH]nc(N4CCCC(COCCN5CCCC5)C4)c23)cc1 (stereo not drawn) [Compound 8, 4-phenyl-3-[3-(2-pyrrolidin-1-ylethoxymethyl)-1-piperidyl]-1H-thieno[2,3-c]pyrazole] | < 500 nM |
| c1ccc(-c2csc3[nH]nc(N4C5CCC4CC(NC4CCC4)C5)c23)cc1 (stereo not drawn) [Compound 10, N-cyclobutyl-8-(4-phenyl-1H-thieno[2,3-c]pyrazol-3-yl)-8-azabicyclo[3.2.1]octan-3-amine] | < 500 nM |
| c1ccc(-c2csc3[nH]nc(N4C5CCC4CC(N4CCC4)C5)c23)cc1 (stereo not drawn) [Compound 11, 3-[3-(azetidin-1-yl)-8-azabicyclo[3.2.1]octan-8-yl]-4-phenyl-1H-thieno[2,3-c]pyrazole] | 500 to 3000 nM |
| CC(C)NC1CC2CCC(C1)N2c1n[nH]c2scc(-c3ccccc3)c12 (stereo not drawn) [Compound 12, N-isopropyl-8-(4-phenyl-1H-thieno[2,3-c]pyrazol-3-yl)-8-azabicyclo[3.2.1]octan-3-amine] | 500 to 3000 nM |
| CC(=O)n1nc(N2C3CCC2CC(OCCN2CCCC2)C3)c2c(-c3ccccc3)csc21 (stereo not drawn) [Compound 17, 1-[4-phenyl-3-[3-(2-pyrrolidin-1-ylethoxy)-8-azabicyclo[3.2.1]octan-8-yl]thieno[2,3-c]pyrazol-1-yl]ethanone] | < 500 nM |
| Cn1nc(N2CCC(COCCN3CCCC3)CC2)c2c(-c3ccccc3)csc21 [Compound 21, 1-methyl-4-phenyl-3-[4-(2-pyrrolidin-1-ylethoxymethyl)-1-piperidyl]thieno[2,3-c]pyrazole] | < 500 nM |
| CN(C)C(=O)c1sc2[nH]nc(N3CCC(COCCN4CCCC4)CC3)c2c1-c1ccccc1 [Compound 23, N,N-dimethyl-4-phenyl-3-[4-(2-pyrrolidin-1-ylethoxymethyl)-1-piperidyl]-1H-thieno[2,3-c]pyrazole-5-carboxamide] | 500 to 3000 nM |
| CC(C)NC(=O)c1sc2[nH]nc(N3CCC(COCCN4CCCC4)CC3)c2c1-c1ccccc1 [Compound 24, N-isopropyl-4-phenyl-3-[4-(2-pyrrolidin-1-ylethoxymethyl)-1-piperidyl]-1H-thieno[2,3-c]pyrazole-5-carboxamide] | < 500 nM |
